Source: PubChem BioAssay (NCI)
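Five concentrations, 48 hours, 96-well plates. At the TGI there is no net growth.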

Key:
Assay in all cases: NCI tumour cell line growth inhibition, 48 h
RXF-631 renal = system: RXF-631 renal
MDA-N = system: MDA-N
KM20L2 colon = system: KM20L2 colon
DMS 114 small cell lung = system: DMS 114 small cell lung
SNB-78 CNS = system: SNB-78 CNS
BT-549 breast = system: BT-549 breast
DMS 273 small cell lung = system: DMS 273 small cell lung
M19-MEL melanoma = system: M19-MEL melanoma
LXFL 529 NSCLC = system: LXFL 529 NSCLC
P388 leukemia = system: P388 leukemia
P388/ADR leukemia = system: P388/ADR leukemia
SN12K1 renal = system: SN12K1 renal

Row | SMILES | TGI (RXF-631 renal) [µM] | TGI (MDA-N) [µM] | TGI (KM20L2 colon) [µM] | TGI (DMS 114 small cell lung) [µM] | TGI (SNB-78 CNS) [µM] | TGI (BT-549 breast) [µM] | TGI (DMS 273 small cell lung) [µM] | TGI (M19-MEL melanoma) [µM] | TGI (LXFL 529 NSCLC) [µM] | TGI (P388 leukemia) [µM] | TGI (P388/ADR leukemia) [µM] | TGI (SN12K1 renal) [µM]
1 | CS(=O)(=O)c1cc(=O)c2ccccc2s1 | 21.3 | 16.2 | 28.2 | 11.2 | 14 | 35.6 | 20.7 | 18.3 | 3.02 |  |  | 
2 | COc1cc2c(c(OC)c1)C1(CC(CC#N)C2)SCCS1 (centres undefined) | > 100 |  | > 100 | > 100 | > 100 |  | > 100 | > 100 | > 100 |  |  | 
3 | COc1ccc2c3c(coc13)C(CCC(=O)O)CC2 (centres undefined) | > 100 |  | > 100 | > 100 | > 100 |  | > 100 | > 100 | > 100 |  |  | 
4 | Nc1ncn(C2CC(O)C(CO)O2)c(=O)n1 (centres undefined) |  | 7.2 | > 375 | > 375 | > 375 | > 178 |  | > 375 |  | 142 | 226 | > 375
5 | CC(=O)N1C/C(=C\c2ccc(N(C)C)cc2)C(=O)/C(=C/c2ccc(N(C)C)cc2)C1 | > 100 |  | > 100 | 60.1 | > 100 |  | > 100 | > 100 | > 100 |  |  | 
